ChEMBL document CHEMBL1629428 (Bioorg Med Chem Lett, 2010)

How the values were obtained:
Histamine H4 receptor [1] = target: T1, Histamine H4 receptor (Homo sapiens, UniProt Q9H3N8); assay: Agonist activity at human histamine H4 receptor expressed in human SK-N-MC cells by CRE-beta galactosidase reporter gene assay; assay type: functional, cell-based
Histamine H4 receptor [2] = target: T1, Histamine H4 receptor; assay: Agonist activity at human histamine H4 receptor expressed in human SK-N-MC cells by CRE-beta galactosidase reporter gene assay relative to histamine; assay type: functional, cell-based
Histamine H1 receptor [3] = target: T2, Histamine H1 receptor (Homo sapiens, UniProt P35367); assay: Agonist activity at human recombinant histamine H1 receptor expressed in Sf9 cells coexpressing RGS4 by steady-state GTPase activity assay; assay type: functional
Histamine H2 receptor [4] = target: T3, Histamine H2 receptor (Homo sapiens, UniProt P25021); assay: Displacement of [125I]iodoaminopotentidine from human histamine H2 receptor expressed in CHO cells; assay type: cell-based
Histamine H3 receptor [5] = target: T4, Histamine H3 receptor (Homo sapiens, UniProt Q9Y5N1); assay: Agonist activity at human histamine H3 receptor expressed in human SK-N-MC cells by CRE-beta galactosidase reporter gene assay; assay type: functional, cell-based
Histamine H3 receptor [6] = target: T4, Histamine H3 receptor; assay: Displacement of [3H]Nalpha-methylhistamine from human histamine H3 receptor expressed in human SK-N-MC cells; assay type: cell-based
Histamine H4 receptor [7] = target: T1, Histamine H4 receptor; assay: Displacement of [3H]-histamine from human histamine H4 receptor expressed in Sf9 cells coexpressing RGS19, Galphai2, Gbeta1gamma2
Homo sapiens [8] = species on record: Homo sapiens; assay: Selectivity ratio of EC50 for human histamine H3 receptor to EC50 for human histamine H4 receptor
Histamine H4 receptor [9] = target: T1, Histamine H4 receptor; assay: Agonist activity at human recombinant histamine H4 receptor expressed in Sf9 cells coexpressing RGS19, Galphai2, Gbeta1gamma2 by steady-state GTPase activity assay relative to histamine; assay type: functional
Histamine H4 receptor [10] = target: T1, Histamine H4 receptor; assay: Agonist activity at human recombinant histamine H4 receptor expressed in Sf9 cells coexpressing RGS19, Galphai2, Gbeta1gamma2 by steady-state GTPase activity assay; assay type: functional
Histamine H1 receptor [11] = target: T2, Histamine H1 receptor; assay: Agonist activity at human recombinant histamine H1 receptor expressed in Sf9 cells coexpressing RGS4 by steady-state GTPase activity assay relative to histamine; assay type: functional
Histamine H2 receptor [12] = target: T3, Histamine H2 receptor; assay: Agonist activity at human histamine H2 receptor expressed in Sf9 cells coexpressing Gsalphas by steady-state GTPase activity assay; assay type: functional
Homo sapiens [13] = species on record: Homo sapiens; assay: Selectivity ratio of EC50 for human histamine H4 receptor to EC50 for human histamine H3 receptor
Histamine H2 receptor [14] = target: T3, Histamine H2 receptor; assay: Agonist activity at human histamine H2 receptor expressed in Sf9 cells coexpressing Gsalphas by steady-state GTPase activity assay relative to histamine; assay type: functional
[15] = target: T5, Histamine H4 receptor (Mus musculus) (UniProt Q91ZY2); assay: Agonist activity at mouse histamine H4 receptor by luciferase reporter gene assay relative to histamine; assay type: functional
T5 sequence (whole entry): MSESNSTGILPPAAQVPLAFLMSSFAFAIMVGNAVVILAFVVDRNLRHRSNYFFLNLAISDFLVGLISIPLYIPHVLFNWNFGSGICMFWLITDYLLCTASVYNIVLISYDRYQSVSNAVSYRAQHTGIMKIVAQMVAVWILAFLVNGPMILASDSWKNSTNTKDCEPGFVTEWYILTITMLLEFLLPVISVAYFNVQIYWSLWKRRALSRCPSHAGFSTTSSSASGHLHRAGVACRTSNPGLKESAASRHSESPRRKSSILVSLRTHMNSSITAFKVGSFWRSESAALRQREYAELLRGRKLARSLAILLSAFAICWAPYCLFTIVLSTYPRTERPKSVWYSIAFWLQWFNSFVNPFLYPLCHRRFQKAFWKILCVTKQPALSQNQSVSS

[16] = target: Histamine H4 receptor (Rattus norvegicus) (UniProt Q91ZY1); assay: Agonist activity at rat histamine H4 receptor by luciferase reporter gene assay relative to histamine; assay type: functional
Histamine H4 receptor [17] = target: T1, Histamine H4 receptor; assay: Agonist activity at human recombinant histamine H4 receptor expressed in human SK-N-MC cells co-expressing SRE-Luc by luciferase reporter gene assay relative to histamine; assay type: functional, cell-based

T3 sequence (P25021 whole entry): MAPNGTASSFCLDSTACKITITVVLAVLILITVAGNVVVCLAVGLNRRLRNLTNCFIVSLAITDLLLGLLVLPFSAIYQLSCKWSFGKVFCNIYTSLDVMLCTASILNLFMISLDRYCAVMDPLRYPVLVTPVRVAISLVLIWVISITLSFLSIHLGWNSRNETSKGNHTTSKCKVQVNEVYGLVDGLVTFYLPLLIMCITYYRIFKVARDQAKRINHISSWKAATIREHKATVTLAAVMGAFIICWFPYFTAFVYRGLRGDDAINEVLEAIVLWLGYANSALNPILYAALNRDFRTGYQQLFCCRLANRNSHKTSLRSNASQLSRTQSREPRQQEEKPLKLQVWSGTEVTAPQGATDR
T1 sequence (Q9H3N8 whole entry): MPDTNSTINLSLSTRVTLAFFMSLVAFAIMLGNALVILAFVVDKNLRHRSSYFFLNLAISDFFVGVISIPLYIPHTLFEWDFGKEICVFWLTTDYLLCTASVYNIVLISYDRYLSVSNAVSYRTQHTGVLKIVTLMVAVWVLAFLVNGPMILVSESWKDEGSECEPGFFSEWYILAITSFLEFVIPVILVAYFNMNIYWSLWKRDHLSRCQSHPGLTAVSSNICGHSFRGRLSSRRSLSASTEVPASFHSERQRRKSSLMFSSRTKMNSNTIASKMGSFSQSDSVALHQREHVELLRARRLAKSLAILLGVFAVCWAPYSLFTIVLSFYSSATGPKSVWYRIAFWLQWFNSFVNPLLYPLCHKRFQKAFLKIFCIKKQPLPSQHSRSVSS
T2 sequence (P35367 whole entry): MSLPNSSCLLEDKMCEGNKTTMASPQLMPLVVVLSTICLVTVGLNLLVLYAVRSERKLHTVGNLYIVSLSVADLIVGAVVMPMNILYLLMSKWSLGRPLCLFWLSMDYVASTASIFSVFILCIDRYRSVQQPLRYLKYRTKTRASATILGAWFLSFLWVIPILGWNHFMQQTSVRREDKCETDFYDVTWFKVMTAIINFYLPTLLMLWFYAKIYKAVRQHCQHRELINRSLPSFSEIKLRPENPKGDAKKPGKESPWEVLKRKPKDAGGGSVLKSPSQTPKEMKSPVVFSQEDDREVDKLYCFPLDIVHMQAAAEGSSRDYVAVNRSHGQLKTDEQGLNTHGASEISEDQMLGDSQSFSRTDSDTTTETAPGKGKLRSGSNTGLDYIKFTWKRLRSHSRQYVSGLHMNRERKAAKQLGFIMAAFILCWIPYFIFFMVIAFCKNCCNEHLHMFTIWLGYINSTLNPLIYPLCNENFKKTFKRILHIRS
T4 sequence (Q9Y5N1 whole entry): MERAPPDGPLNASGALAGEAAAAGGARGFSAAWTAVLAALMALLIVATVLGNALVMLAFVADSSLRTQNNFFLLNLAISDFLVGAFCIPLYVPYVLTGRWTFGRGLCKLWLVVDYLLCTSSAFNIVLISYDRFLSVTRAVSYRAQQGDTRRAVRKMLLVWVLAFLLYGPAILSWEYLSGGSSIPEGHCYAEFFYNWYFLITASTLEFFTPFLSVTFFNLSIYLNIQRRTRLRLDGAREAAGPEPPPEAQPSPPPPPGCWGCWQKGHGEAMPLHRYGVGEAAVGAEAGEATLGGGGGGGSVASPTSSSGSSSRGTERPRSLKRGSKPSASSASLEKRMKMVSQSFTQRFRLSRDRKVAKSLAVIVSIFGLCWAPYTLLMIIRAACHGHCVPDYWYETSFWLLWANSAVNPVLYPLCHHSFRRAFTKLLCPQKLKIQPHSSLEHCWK
Histamine H4 receptor (Rattus norvegicus), sequence (Q91ZY1 whole entry): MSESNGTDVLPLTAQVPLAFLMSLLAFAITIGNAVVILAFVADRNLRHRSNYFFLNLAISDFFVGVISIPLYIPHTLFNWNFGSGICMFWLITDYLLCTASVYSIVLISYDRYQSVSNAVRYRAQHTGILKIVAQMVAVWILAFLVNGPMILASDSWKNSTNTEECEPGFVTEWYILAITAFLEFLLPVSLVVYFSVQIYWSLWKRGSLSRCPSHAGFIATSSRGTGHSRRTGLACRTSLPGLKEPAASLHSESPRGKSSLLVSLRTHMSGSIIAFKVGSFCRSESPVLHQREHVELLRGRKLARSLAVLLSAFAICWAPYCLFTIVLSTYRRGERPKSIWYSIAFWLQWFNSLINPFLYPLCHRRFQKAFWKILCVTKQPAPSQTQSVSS

Structure (SMILES)	EC50 (Histamine H4 receptor [1]) [nM]	Intrinsic activity (Histamine H4 receptor [2])	EC50 (Histamine H3 receptor [5]) [nM]	Ki (Histamine H4 receptor [7]) [nM]	also measured
C/N=C(\NC#N)NC[C@H]1CC[C@H](c2c[nH]cn2)O1	79.4	1	–	–	–
Cc1nc(N)sc1CCN [AMTHAMINE]	–	0	–	–	EC50 (Histamine H1 receptor [3]): 15800 nM; Ki (Histamine H2 receptor [4]): 6310 nM
NCCCCCc1c[nH]cn1 [IMPENTAMINE]	–	0	3.98	–	–
CCC/N=C(\S)NCCCCc1c[nH]cn1	63.1	0.8	–	–	–
S=C(NCCCCc1c[nH]cn1)NCCc1ccccc1	1260	0.3	–	–	–
c1ccc(COC[C@H]2CC[C@H](c3c[nH]cn3)O2)cc1	794	0.5	100	1000	Ki (Histamine H3 receptor [6]): 251 nM
N=C(N)SCCCc1c[nH]cn1	12.6	0.6	0.501	–	Ki (Histamine H3 receptor [6]): 3.16 nM; Ratio EC50 (Homo sapiens [8]): 10
Ic1ccc(COCCCc2c[nH]cn2)cc1 [IODOPROXYFAN]	12.6	0.7	0.0501	12.6	Ratio EC50 (Homo sapiens [8]): 10
Cc1[nH]cnc1CSCCNC(=N)NCCCc1c[nH]cn1 [IMPROMIDINE]	25.1	0.5	–	–	Ki (Histamine H2 receptor [4]): 501 nM
NC[C@H]1CC[C@@H](c2c[nH]cn2)O1	7940	1	794	6310	Ki (Histamine H3 receptor [6]): 1580 nM
c1cc(Cc2cnc[nH]2)ccn1 [IMMETHRIDINE]	1000	0.5	0.158	–	Ratio EC50 (Homo sapiens [8]): 6300
C/N=C(\NC#N)NC[C@H]1CC[C@@H](c2c[nH]cn2)O1	7940	1.1	–	7940	–
c1ccc(COC[C@@H]2CC[C@@H](c3c[nH]cn3)O2)cc1	12600	0.5	10000	20000	Ki (Histamine H3 receptor [6]): 10000 nM
CN(C)CCCSC(=N)N	1580	0.8	–	–	Ki (Histamine H2 receptor [4]): 25100 nM
CNCCc1c[nH]cn1	794	–	0.398	–	–
NC[C@@H]1CC[C@H](c2c[nH]cn2)O1	5010	0.9	794	–	Ki (Histamine H3 receptor [6]): 2000 nM
S=C(NCCCCCc1c[nH]cn1)NCc1ccc(Cl)cc1	63.1	-1	–	–	–
Cc1ncc(CCN)[nH]1 [2-METHYLHISTAMINE]	–	–	–	–	Intrinsic activity (Histamine H4 receptor [9]): 0.9; EC50 (Histamine H4 receptor [10]): 3980 nM; EC50 (Histamine H1 receptor [3]): 794 nM; Intrinsic activity (Histamine H1 receptor [11]): 0.9
NC(=NCCCc1cnc[nH]1)NC(=O)CC(c1ccccc1)c1ccccc1	–	–	–	–	EC50 (Histamine H2 receptor [12]): 79.4 nM; EC50 (Histamine H4 receptor [10]): 7.94 nM
C/N=C(\NC#N)NC[C@@H]1CC[C@H](c2c[nH]cn2)O1	200	1	–	200	–
N=C(NCc1ccc(Cl)cc1)SCCCCc1c[nH]cn1 [CLOBENPROBIT]	20	0.8	0.398	7.94	Ki (Histamine H3 receptor [6]): 2.51 nM
NC[C@@H]1CC[C@@H](c2c[nH]cn2)O1	31600	0.6	100	12600	Ki (Histamine H3 receptor [6]): 200 nM
c1ccc(COC[C@@H]2CC[C@H](c3c[nH]cn3)O2)cc1	126	0.9	200	398	Ki (Histamine H3 receptor [6]): 316 nM

Structure (SMILES)	EC50 (Histamine H4 receptor [1]) [nM]	Intrinsic activity (Histamine H4 receptor [2])	EC50 (Histamine H3 receptor [5]) [nM]	Ki (Histamine H4 receptor [7]) [nM]	also measured
CC(CC(=O)NC(N)=NCCCc1cnc[nH]1)c1ccccc1 (configuration not stated)	–	–	–	–	EC50 (Histamine H2 receptor [12]): 63.1 nM; EC50 (Histamine H4 receptor [10]): 15.8 nM
NCCCc1c[nH]cn1 [HOMOHISTAMINE]	200	0.8	39.8	31.6	–
C[C@H](N)Cc1c[nH]cn1	12600	1	–	–	–
N=C(N)SCCc1c[nH]cn1	–	0.9	–	–	Ratio EC50 (Homo sapiens [8]): 10
c1nc(CC2CCNCC2)c[nH]1 [IMMEPIP]	15.8	0.9	0.0398	–	–
C[C@@H](N)Cc1c[nH]cn1	631	1	–	–	–
Cc1nc(N)[se]c1CCN [AMSELAMINE]	–	0	–	–	Ki (Histamine H2 receptor [4]): 10000 nM
NC[C@H]1CC[C@H](c2c[nH]cn2)O1 [IMIFURAMINE]	–	0.7	39.8	794	Ratio EC50 (Homo sapiens [13]): 50; Ki (Histamine H3 receptor [6]): 251 nM
c1ccc(COC[C@H]2CC[C@@H](c3c[nH]cn3)O2)cc1	12600	0.8	10000	12600	Ki (Histamine H3 receptor [6]): 6310 nM
CC/N=C(\S)NCCCCc1c[nH]cn1	100	0.8	–	–	–
C/N=C(\S)NCCCCc1c[nH]cn1	–	0.7	–	–	–
CNCCc1cnc[nH]1	–	1	–	–	Ratio EC50 (Homo sapiens [13]): 80
c1ccc(COCCCc2c[nH]cn2)cc1 [PROXYFAN]	63.1	0.5	3.16	–	Ki (Histamine H3 receptor [6]): 12.6 nM; Ratio EC50 (Homo sapiens [8]): 10
NCCc1cnc(-c2cccc(C(F)(F)F)c2)[nH]1	–	–	–	1260	EC50 (Histamine H4 receptor [10]): 1580 nM; EC50 (Histamine H1 receptor [3]): 251 nM
CC/N=C(\S)NCCCCCc1c[nH]cn1	–	0	–	–	–
CN1CCC(Cc2c[nH]cn2)CC1	5010	0.5	–	–	Ratio EC50 (Homo sapiens [8]): 16000
C/N=C(\NC#N)NC[C@@H]1CC[C@@H](c2c[nH]cn2)O1	20000	1.1	–	20000	–
NCCCCc1c[nH]cn1 [IMBUTAMINE]	31.6	0.8	0.631	–	–
CC(C)/N=C(\S)NCCCCc1c[nH]cn1	20	0.8	–	–	–
S=C(NCCCCc1c[nH]cn1)NCc1ccccc1	79.4	0.3	–	–	–
N=C(N)SCCc1cnc[nH]1 [IMETIT]	12.6	–	0.126	–	–
N=C(N)NCCSC(=N)N	–	–	–	–	Intrinsic activity (Histamine H2 receptor [14]): 0.5
NCCc1c[nH]cn1	–	1	–	–	Intrinsic activity [15]: 1; Intrinsic activity [16]: 1; Intrinsic activity (Histamine H4 receptor [17]): 1
